According to patent US8110368B1, “Synuclein gamma as a biomarker of obesity and obesity-related disorders” (The United States of America Department of Agriculture, as …, priority 2008, dated 2012):

Assays:
[1] = tested on: γ-synuclein mRNA in 3T3-L1 adipocytes; assay: γ-synuclein mRNA expression in 3T3-L1 adipocytes treated with PPARγ agonist (quantitative real-time PCR); type: cell-based, murine
Procedure: 3T3-L1 Adipocyte Differentiation & PPARγAgonist Studies. Results herein were generated using the samples described in our recently-published studies (1). Briefly, murine 3T3-L1 fibroblasts (ATCC, Manassas, Va.) grown to between 5-9 passages were induced to differentiate into adipocytes using a protocol similar to Farmer et al. (i.e., (22)). Two-day-confluent cells grown in high-glucose (25 mM) DMEM and 10% FBS (37° C., 5% CO2) in 6-well rat tail collagen-coated plates were exposed to differentiation medium containing 10 μg/ml bovine insulin (˜1.6 μM), 1 μM dexamethasone, and 0.5 mM 3-isobutyl-1-methylxanthine (IBMX) for 2 days. Cells were grown thereafter in maintenance medium (DMEM/10% FBS+2.5 μg/mL insulin). Cell culture media was replaced daily. Proof-of-principle studies tested the ability of the potent non-thiazoladinedione PPARγ agonist GW1929 (23) to regulate γ-synuclein gene expression at various points in the 3T3-L1 adipocyte differentiation and maturation process, as indicated. For these experiments, cells were cultured for the times and doses indicated in media containing vehicle (DMSO; 0.1% by vol.) or GW1929 (0.1% by vol.). RNA was prepared from 3T3-L1 adipocytes using Trizol-based methods for cell culture samples (Ambion, Austin, Tex.). RNA abundance and integrity were checked using a Nanoprop® ND-1000 Spectrophotometer (Nanoprop Technologies, Wilmington, Del.) and an Agilent 2100 bioanalyzer (Agilent, Foster City, Calif.) per manufacturer's instructions.
Gene Expression Analyses. RNA abundance of γ-synuclein and of other genes of interest were measured in 3T3-L1 adipocyte samples using quantitative real-time PCR, as described in detail previously (1). These assays utilized gene-specific TaqMan primers and FAM-MGB labeled probes (Assays-on-Demand®, Applied Biosystems Inc., Foster City, Calif.) and were run in duplicate or triplicate for each sample using an ABI 7900HT instrument. Primers/probe ABI identifiers for human reagents were γ-synuclein (Hs00268306 ml), leptin (Hs00174877 ml), and 11B-hydroxysteroid dehydrogenase (11β-HSD-1; Hs00194153 ml), and for mouse, γ-synuclein (Mm00488345 ml) and others described previously (1). Mouse and human tissue panel samples, and samples derived from non-obese and obese WAT (24) were assayed using a two-step process with preparation of cDNA from total RNA, followed by quantitative real-time PCR. […] Amplification cycle number (Ct) of 18S for each sample was determined using commercial 18S primers and probe (ABI) to correct for template loading differences across all target genes (ΔCt method: ΔCt=sample Ct−18S Ct), and expression values were determined relative to control transcript levels using a mathematical formula as previously described (1). […]

[2] = tested on: leptin mRNA in 3T3-L1 adipocytes; assay: leptin mRNA expression in 3T3-L1 adipocytes treated with PPARγ agonist (quantitative real-time PCR); type: cell-based, murine; conditions: fully-differentiated 3T3-L1 adipocytes, 18 hr treatment, compared with the γ-synuclein mRNA decrease
Procedure: 3T3-L1 Adipocyte Differentiation & PPARγAgonist Studies. Results herein were generated using the samples described in our recently-published studies (1). Briefly, murine 3T3-L1 fibroblasts (ATCC, Manassas, Va.) grown to between 5-9 passages were induced to differentiate into adipocytes using a protocol similar to Farmer et al. (i.e., (22)). Two-day-confluent cells grown in high-glucose (25 mM) DMEM and 10% FBS (37° C., 5% CO2) in 6-well rat tail collagen-coated plates were exposed to differentiation medium containing 10 μg/ml bovine insulin (˜1.6 μM), 1 μM dexamethasone, and 0.5 mM 3-isobutyl-1-methylxanthine (IBMX) for 2 days. […]
Gene Expression Analyses. RNA abundance of γ-synuclein and of other genes of interest were measured in 3T3-L1 adipocyte samples using quantitative real-time PCR, as described in detail previously (1). […] Mouse and human tissue panel samples, and samples derived from non-obese and obese WAT (24) were assayed using a two-step process with preparation of cDNA from total RNA, followed by quantitative real-time PCR. […] Amplification cycle number (Ct) of 18S for each sample was determined using commercial 18S primers and probe (ABI) to correct for template loading differences across all target genes (ΔCt method: ΔCt=sample Ct−18S Ct), and expression values were determined relative to control transcript levels using a mathematical formula as previously described (1). […]

Row | SMILES | effective doses required to decrease γ-synuclein and leptin mRNA, compared to GW1929 ([1]; 3T3-L1 adipocytes, data not shown) | decrease of γ-synuclein mRNA abundance ([1]; fully-differentiated 3T3-L1 adipocytes, 18 hr treatment, dose-response, vs vehicle (DMSO)) [%] | γ-synuclein expression (direction of change) ([1]; mature fat cells, single dose, short-term (18 hr) exposure) | γ-synuclein mRNA (direction of change) ([1]; pre-adipocytes and immature adipocytes, single dose, short-term (18 hr) exposure) | leptin mRNA pattern in response to short-term treatment [2]
1 | Cc1c(C)c2c(c(C)c1O)CCC(C)(COc1ccc(CC3SC(=O)NC3=O)cc1)O2 (centres unmarked) [troglitazone] | at least 5 fold |  |  |  | 
2 | CN(CCOc1ccc(C[C@H](Nc2ccccc2C(=O)c2ccccc2)C(=O)O)cc1)c1ccccn1 [GW1929] |  | ≤ 50 | decrease | increased | paralleled qualitatively
